Common to all, as to format: cell-based
One data set addresses Adenylate cyclase type 8 (Homo sapiens, UniProt P40145). The experiment in a line: Agonist activity at recombinant human AC8 expressed in HEK293 cells assessed as increase in cAMP level at 50 uM measured after 30 mins by LANCE Ultra cAMP Detection kit method. Conditions: hek293, 0.5 h. In general terms: Cyclic AMP is a second messenger, typically raised through Gs and lowered through Gi signalling.

For data set [1], the target named is T1, Adenylate cyclase type 2 (Homo sapiens, UniProt Q08462). The experiment in a line: Agonist activity at recombinant human AC2 expressed in HEK293 cells assessed as increase in cAMP level measured after 30 mins by LANCE Ultra cAMP Detection kit method.
T1 sequence (Q08462 whole entry): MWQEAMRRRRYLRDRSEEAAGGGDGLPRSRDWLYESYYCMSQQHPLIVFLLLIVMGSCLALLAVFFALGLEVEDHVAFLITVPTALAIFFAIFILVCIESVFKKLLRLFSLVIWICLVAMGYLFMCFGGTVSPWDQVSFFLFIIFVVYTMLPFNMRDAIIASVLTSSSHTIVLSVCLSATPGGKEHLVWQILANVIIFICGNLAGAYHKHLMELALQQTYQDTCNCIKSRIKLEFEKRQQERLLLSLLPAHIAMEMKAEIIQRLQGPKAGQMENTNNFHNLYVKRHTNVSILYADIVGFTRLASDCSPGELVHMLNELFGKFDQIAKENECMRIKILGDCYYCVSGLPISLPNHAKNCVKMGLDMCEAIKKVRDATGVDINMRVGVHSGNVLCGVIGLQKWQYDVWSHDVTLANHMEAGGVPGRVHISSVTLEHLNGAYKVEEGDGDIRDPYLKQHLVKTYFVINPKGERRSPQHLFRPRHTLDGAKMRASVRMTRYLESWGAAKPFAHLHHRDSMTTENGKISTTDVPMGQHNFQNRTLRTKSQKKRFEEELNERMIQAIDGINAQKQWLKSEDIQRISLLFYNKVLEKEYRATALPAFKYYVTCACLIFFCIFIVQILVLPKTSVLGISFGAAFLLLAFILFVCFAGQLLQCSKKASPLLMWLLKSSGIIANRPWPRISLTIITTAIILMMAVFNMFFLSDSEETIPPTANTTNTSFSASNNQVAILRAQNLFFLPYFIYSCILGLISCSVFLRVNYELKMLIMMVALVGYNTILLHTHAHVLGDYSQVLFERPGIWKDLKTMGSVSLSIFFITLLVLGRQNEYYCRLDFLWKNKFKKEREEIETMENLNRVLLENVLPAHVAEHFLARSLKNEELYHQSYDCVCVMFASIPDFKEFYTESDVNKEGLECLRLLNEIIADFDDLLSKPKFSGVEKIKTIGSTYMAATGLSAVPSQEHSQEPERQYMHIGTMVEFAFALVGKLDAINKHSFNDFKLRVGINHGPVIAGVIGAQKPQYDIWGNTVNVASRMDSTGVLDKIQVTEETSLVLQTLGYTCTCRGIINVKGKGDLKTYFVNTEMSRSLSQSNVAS
The next data set concerns the target Adenylate cyclase type 1 (Homo sapiens, UniProt Q08828). The experiment in a line: Agonist activity at recombinant human AC1 expressed in HEK293 cells assessed as increase in cAMP level at 50 uM measured after 30 mins by LANCE Ultra cAMP Detection kit method. Conditions: hek293, 0.5 h.
Another data set deals with Adenylate cyclase type 5 (Homo sapiens, UniProt O95622). The experiment in a line: Agonist activity at recombinant human AC5 expressed in HEK293 cells assessed as increase in cAMP level at 50 uM measured after 30 mins by LANCE Ultra cAMP Detection kit method. Conditions: hek293, 0.5 h.
Sequence of Adenylate cyclase type 5 (O95622 whole entry): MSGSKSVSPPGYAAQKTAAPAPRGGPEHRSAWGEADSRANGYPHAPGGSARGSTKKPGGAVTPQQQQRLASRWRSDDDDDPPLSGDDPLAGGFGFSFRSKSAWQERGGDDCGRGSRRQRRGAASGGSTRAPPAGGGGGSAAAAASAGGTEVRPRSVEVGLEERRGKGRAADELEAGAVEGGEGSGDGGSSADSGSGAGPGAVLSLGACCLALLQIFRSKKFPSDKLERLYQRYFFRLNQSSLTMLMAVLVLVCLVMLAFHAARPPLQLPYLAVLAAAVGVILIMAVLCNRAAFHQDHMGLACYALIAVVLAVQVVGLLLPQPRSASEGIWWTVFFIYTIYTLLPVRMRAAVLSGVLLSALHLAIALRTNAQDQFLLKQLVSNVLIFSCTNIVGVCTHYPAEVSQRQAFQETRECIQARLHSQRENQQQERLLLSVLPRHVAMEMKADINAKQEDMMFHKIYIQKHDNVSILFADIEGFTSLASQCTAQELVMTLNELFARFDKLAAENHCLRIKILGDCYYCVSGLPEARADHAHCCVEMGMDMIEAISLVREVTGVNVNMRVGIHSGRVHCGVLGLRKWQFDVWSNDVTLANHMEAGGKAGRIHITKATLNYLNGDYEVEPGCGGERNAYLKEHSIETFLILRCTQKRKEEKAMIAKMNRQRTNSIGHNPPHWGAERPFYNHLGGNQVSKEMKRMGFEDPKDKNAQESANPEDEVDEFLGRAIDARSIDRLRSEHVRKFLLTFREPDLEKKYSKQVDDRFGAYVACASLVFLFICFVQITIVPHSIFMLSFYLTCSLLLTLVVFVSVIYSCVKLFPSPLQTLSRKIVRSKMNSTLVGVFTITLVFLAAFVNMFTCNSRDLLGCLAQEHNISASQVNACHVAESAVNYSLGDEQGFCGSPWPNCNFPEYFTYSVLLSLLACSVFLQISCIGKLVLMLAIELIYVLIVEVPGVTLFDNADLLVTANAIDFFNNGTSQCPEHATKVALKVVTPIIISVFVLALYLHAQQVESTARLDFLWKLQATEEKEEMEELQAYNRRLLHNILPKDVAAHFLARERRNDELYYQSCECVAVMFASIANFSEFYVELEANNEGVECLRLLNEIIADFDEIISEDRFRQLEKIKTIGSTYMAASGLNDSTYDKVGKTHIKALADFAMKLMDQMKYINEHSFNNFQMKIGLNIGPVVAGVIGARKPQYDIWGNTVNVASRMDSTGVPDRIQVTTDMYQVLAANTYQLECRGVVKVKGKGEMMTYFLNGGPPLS
Data set [2] deals with T1, Adenylate cyclase type 2. Description: Agonist activity at recombinant human AC2 expressed in HEK293 cells assessed as increase in cAMP level by measuring cAMP level at 50 uM measured after 30 mins by LANCE Ultra cAMP Detection kit method relative to control. The following applies: filed as agonist.
Data set [3] concerns the target T1, Adenylate cyclase type 2. Description: Potency index, ratio of forskolin EC50 to test compound EC50 for agonist activity at recombinant human AC2 expressed in HEK293 cells assessed as increase in cAMP level.
In data set [4] the target is T1, Adenylate cyclase type 2. The experiment in a line: Agonist activity at recombinant human AC2 expressed in HEK293 cells assessed as reduction in IL6 level by measuring IL6 level at 50 uM measured after 24 hrs by ELISA relative to control. Set-up: scale not given: the % may be the effect or the level left. For orientation: ELISA stands for enzyme-linked immunosorbent assay.

The target in data set [5] is T1, Adenylate cyclase type 2. The experiment in a line: Agonist activity at recombinant human AC2 expressed in HEK293 cells assessed as increase in cAMP level at 50 uM measured after 30 mins by LANCE Ultra cAMP Detection kit method. Conditions: filed as agonist.

The structures appear in SMILES notation. Activity calls are given as the source filed them. No cut-off for these calls is given here.

One may read the EC50 as the midpoint of the concentration-response curve.

Sequence of Adenylate cyclase type 8 (P40145 whole entry): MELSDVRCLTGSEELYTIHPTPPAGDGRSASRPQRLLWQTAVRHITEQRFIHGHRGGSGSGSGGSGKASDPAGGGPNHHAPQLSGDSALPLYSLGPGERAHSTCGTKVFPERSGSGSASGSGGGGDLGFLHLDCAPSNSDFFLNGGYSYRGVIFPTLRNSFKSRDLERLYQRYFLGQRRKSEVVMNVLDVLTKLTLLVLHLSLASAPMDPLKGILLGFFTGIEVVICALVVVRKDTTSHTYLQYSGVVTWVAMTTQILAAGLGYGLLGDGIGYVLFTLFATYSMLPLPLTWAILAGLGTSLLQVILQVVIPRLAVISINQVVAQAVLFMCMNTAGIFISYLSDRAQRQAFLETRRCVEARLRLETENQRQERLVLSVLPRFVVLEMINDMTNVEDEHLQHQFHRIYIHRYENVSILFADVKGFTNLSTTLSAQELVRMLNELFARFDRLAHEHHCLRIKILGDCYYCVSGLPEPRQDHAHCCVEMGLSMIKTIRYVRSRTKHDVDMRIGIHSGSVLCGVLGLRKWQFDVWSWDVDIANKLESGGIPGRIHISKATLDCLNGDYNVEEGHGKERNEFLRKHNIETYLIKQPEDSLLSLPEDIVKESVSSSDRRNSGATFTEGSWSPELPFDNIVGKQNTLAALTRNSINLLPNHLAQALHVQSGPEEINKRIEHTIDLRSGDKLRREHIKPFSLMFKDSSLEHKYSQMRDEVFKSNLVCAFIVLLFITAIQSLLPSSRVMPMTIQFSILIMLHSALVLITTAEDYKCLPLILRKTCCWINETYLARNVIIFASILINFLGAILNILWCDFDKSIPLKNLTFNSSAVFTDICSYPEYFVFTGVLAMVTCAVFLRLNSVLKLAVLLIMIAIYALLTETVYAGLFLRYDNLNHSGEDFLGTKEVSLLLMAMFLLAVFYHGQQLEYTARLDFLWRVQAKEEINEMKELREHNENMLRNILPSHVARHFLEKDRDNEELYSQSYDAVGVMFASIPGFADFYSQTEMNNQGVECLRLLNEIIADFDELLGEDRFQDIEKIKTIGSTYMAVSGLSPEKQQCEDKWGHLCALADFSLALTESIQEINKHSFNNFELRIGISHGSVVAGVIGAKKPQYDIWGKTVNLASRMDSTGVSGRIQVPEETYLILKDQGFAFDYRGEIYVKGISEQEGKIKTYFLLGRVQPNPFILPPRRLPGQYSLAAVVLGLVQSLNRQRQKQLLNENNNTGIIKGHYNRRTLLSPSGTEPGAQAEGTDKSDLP
Sequence of Adenylate cyclase type 1 (Q08828 whole entry): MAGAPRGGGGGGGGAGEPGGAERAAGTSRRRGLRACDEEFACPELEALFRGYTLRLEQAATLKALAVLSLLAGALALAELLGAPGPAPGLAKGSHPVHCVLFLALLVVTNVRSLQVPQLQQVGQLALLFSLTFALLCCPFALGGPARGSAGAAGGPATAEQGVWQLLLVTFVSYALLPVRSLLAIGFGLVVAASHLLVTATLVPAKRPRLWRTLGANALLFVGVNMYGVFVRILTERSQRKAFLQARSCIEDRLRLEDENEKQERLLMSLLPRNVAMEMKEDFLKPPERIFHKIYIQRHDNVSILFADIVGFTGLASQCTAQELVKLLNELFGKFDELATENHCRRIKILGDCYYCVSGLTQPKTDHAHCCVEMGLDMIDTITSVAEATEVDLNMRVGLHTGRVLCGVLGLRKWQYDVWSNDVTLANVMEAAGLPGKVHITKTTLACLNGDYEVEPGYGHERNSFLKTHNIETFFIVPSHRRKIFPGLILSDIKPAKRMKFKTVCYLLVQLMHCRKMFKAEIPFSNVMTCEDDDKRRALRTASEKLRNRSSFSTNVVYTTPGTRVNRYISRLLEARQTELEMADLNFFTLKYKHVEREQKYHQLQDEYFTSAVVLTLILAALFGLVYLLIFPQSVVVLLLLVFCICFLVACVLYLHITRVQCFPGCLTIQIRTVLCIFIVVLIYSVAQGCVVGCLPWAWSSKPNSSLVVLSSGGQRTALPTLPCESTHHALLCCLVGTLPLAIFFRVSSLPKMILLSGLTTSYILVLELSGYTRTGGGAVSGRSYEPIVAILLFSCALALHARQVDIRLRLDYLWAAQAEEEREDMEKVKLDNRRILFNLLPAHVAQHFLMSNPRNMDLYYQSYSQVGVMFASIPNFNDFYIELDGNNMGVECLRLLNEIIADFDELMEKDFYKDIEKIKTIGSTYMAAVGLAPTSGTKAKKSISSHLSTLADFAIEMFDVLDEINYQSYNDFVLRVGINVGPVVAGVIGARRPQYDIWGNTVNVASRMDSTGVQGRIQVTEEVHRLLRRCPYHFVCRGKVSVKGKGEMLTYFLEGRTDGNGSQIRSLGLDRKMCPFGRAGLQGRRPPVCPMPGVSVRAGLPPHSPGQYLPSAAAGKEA

With `CCOC(=O)C1(Cc2ccc(Cl)cc2Cl)C(=O)Nc2ccccc21` (stereo not drawn), the result at Adenylate cyclase type 8 was Active.

As for `Cc1ccc([C@H]2OC3(C(=O)c4ccc(Br)cc4C3=O)[C@H]3C(=O)N(c4ccccc4Cl)C(=O)[C@@H]23)cc1` (stereo partly drawn), on Adenylate cyclase type 2 [1], the concentration giving a half-maximal response (EC50) was 0.09 µM. For the same compound, the Activity entry at Adenylate cyclase type 1 was “Not Active”; on Adenylate cyclase type 5, “Not Active”; at Adenylate cyclase type 8, “Not Active”; on Adenylate cyclase type 2 [2], 87.8%; on Adenylate cyclase type 2 [4], 37.1%. Further, on Adenylate cyclase type 2 [3], the Ratio EC50 turned out to be 160.

Turning to `O=C1[C@H]2[C@@H](c3ccccc3)OC3(C(=O)c4ccccc4C3=O)[C@H]2C(=O)N1c1cccc(Cl)c1`, the outcome on Adenylate cyclase type 2 [5] was Active. Also, on Adenylate cyclase type 2 [1], the EC50 came to 8.1 µM. For the same compound, the Activity entry at Adenylate cyclase type 2 [1] (filed as agonist) is “Dose-dependent effect”; on Adenylate cyclase type 2 [2], 103%.

For the compound `O=C1[C@H]2[C@@H](c3ccc(Cl)cc3)OC3(C(=O)c4ccccc4C3=O)[C@H]2C(=O)N1c1cccc(F)c1`, at Adenylate cyclase type 2 [1], the EC50 is 3.53 µM. The Activity on Adenylate cyclase type 2 [2] was determined as 99.9%.

Turning to `Cc1ccc(Cl)cc1N1C(=O)[C@H]2[C@@H](c3ccccc3)OC3(C(=O)c4ccccc4C3=O)[C@H]2C1=O`, on Adenylate cyclase type 2 [1], the EC50 stood at 3.12 µM. Moreover, the Activity at Adenylate cyclase type 2 [2] is 101%.

Consider `Cc1ccc([C@H]2OC3(C(=O)c4ccccc4C3=O)[C@H]3C(=O)N(c4ccc(C)c(C)c4)C(=O)[C@@H]23)cc1`, for which the EC50 on Adenylate cyclase type 2 [1] amounted to 0.21 µM. Moreover, at Adenylate cyclase type 2 [2], the Activity was 104%.

The values are drawn from ChEMBL document CHEMBL4680207, “The discovery, design and synthesis of potent agonists of adenylyl cyclase type 2 by virtual screening combining biological evaluation” (Eur J Med Chem, 2020).
